Measured values: PubChem BioAssay AID292 (DTP/NCI, 2004)
Several values for one entry are separate records, joined by “and”; a condition that tells them apart may be missing. Identical values can stand only once. Inconclusive results and toxic doses are left out.

Tested on: B6C3F1 mice, ip Sarcoma M5076, median survival T/C
Test: NCI In Vivo Anticancer Drug Screen. Data for tumor model Sarcoma M5076 (intraperitoneal) in B6C3F1 mice
Conditions: endpoint: median survival time, higher = longer survival
Experimental: The antitumor activity of compounds was measured in mice bearing transplantable tumors. Survival or tumor size were measured and the results are expressed as the measurement made in the treated group (T) divided by the measurement made in the vehicle treated control group (C). The tumor model used in this assay is Sarcoma M5076 (intraperitoneal) in B6C3F1 mice

[1] = dose: 50.0 mg/kg/injection, schedule: Q04DX004 (ip), vehicle: Klucel (hydroxypropylcellulose) (HPC)
[2] = dose: 100.0 mg/kg/injection, schedule: Q04DX004 (ip), vehicle: Klucel (hydroxypropylcellulose) (HPC)
[3] = dose: 200.0 mg/kg/injection, schedule: Q04DX004 (ip), vehicle: Klucel (hydroxypropylcellulose) (HPC)
[4] = dose: 400.0 mg/kg/injection, schedule: Q04DX004 (ip), vehicle: Klucel (hydroxypropylcellulose) (HPC)
[5] = dose: 12.5 mg/kg/injection, schedule: Q04DX004 (ip), vehicle: other
[6] = dose: 37.5 mg/kg/injection, schedule: Q04DX004 (ip), vehicle: saline with Tween-80
[7] = dose: 75.0 mg/kg/injection, schedule: Q04DX004 (ip), vehicle: saline with Tween-80
[8] = dose: 150.0 mg/kg/injection, schedule: Q04DX004 (ip), vehicle: saline with Tween-80
[9] = dose: 50.0 mg/kg/injection, schedule: Q04DX004 (ip), vehicle: saline with Tween-80
[10] = dose: 100.0 mg/kg/injection, schedule: Q04DX004 (ip), vehicle: saline with Tween-80
[11] = dose: 200.0 mg/kg/injection, schedule: Q04DX004 (ip), vehicle: saline with Tween-80
[12] = dose: 400.0 mg/kg/injection, schedule: Q04DX004 (ip), vehicle: saline with Tween-80
[13] = dose: 800.0 mg/kg/injection, schedule: Q04DX004 (ip), vehicle: Klucel (hydroxypropylcellulose) (HPC)
[14] = dose: 25.0 mg/kg/injection, schedule: Q04DX004 (ip), vehicle: Klucel (hydroxypropylcellulose) (HPC)

SMILES: CN=C(N)N/N=C(\C)c1ccc2sc3ccc(/C(C)=N/NC(N)=NC)cc3c2c1
- T/C (dose: 25.0 mg/kg/injection, schedule: Q04DX004 (ip), vehicle: saline with Tween-80): 113 % of control

SMILES: N#CC1C(=O)NC(=O)C(C#N)C1c1ccc(Cl)cc1Cl (centres undefined)
- T/C [1]: 93 % of control
- T/C [2]: 95 % of control
- T/C [3]: 100 % of control
- T/C [4]: 96 % of control

SMILES: COC12[C@@H]3N[C@@H]3CN1C1=C(C(=O)C(NCCSSCCNC3=C(C)C(=O)C4=C(C3=O)C(COC(N)=O)[C@]3(OC)C5N[C@@H]5CN43)=C(C)C1=O)[C@@H]2COC(N)=O (some centres undefined)
- T/C (dose: 3.0 mg/kg/injection, schedule: Q04DX004 (ip), vehicle: other): 161 % of control
- T/C (dose: 6.0 mg/kg/injection, schedule: Q04DX004 (ip), vehicle: other): 216 % of control
- T/C (dose: 12.0 mg/kg/injection, schedule: Q04DX004 (ip), vehicle: other): 91 % of control
- T/C [5]: 253 % of control

SMILES: OCCC(N1CCOCC1)C(O)(c1ccccc1)c1ccccc1 (centres undefined)
- T/C [6]: 103 % of control
- T/C [7]: 106 % of control
- T/C [8]: 107 % of control
- T/C (dose: 300.0 mg/kg/injection, schedule: Q04DX004 (ip), vehicle: saline with Tween-80): 100 % of control
- T/C (dose: 600.0 mg/kg/injection, schedule: Q04DX004 (ip), vehicle: saline with Tween-80): 93 % of control

SMILES: CCOC(=O)C1=C(Nc2ccc(OC)cc2)C(N)=NC1=N
- T/C (dose: 12.5 mg/kg/injection, schedule: Q04DX004 (ip), vehicle: suspension in saline): 102 % of control
- T/C (dose: 25.0 mg/kg/injection, schedule: Q04DX004 (ip), vehicle: suspension in saline): 100 % of control
- T/C [9]: 101 % of control
- T/C (dose: 50.0 mg/kg/injection, schedule: Q04DX004 (ip), vehicle: suspension in saline): 111 % of control
- T/C [10]: 99 % of control
- T/C (dose: 100.0 mg/kg/injection, schedule: Q04DX004 (ip), vehicle: suspension in saline): 101 % of control
- T/C [11]: 102 % of control
- T/C (dose: 200.0 mg/kg/injection, schedule: Q04DX004 (ip), vehicle: suspension in saline): 105 % of control
- T/C [12]: 106 % of control
- T/C (dose: 800.0 mg/kg/injection, schedule: Q04DX004 (ip), vehicle: saline with Tween-80): 101 % of control

SMILES: CC(=O)[O][Pb]([O]C(C)=O)([c]1ccccc1)[c]1ccccc1
- T/C [1]: 100 % of control
- T/C [2]: 104 % of control
- T/C [3]: 99 % of control
- T/C [4]: 97 % of control
- T/C [13]: 114 % of control

SMILES: Cn1nc2c(c(Cl)c1=O)Nc1ccccc1O2
- T/C [6]: 104 % of control
- T/C [7]: 97 % of control
- T/C [8]: 96 % of control

SMILES: CN(C)c1ccc2c(SCC(=O)OCC(=O)[C@@]3(O)CC[C@H]4[C@@H]5CCC6=CC(=O)C=C[C@]6(C)[C@H]5C(=O)C[C@@]43C)c3ccc(N(C)C)cc3nc2c1
- T/C [14]: 101 % of control
- T/C [1]: 103 % of control
- T/C [2]: 97 % of control
- T/C [3]: 90 % of control
- T/C [4]: 94 % of control

SMILES: CC(O)CCC(=O)c1ccoc1 (centres undefined)
- T/C (dose: 1.25 mg/kg/injection, schedule: Q03HX012 (ip), vehicle: saline): 105 % of control
- T/C (dose: 2.5 mg/kg/injection, schedule: Q03HX012 (ip), vehicle: saline): 95 % of control
- T/C (dose: 5.0 mg/kg/injection, schedule: Q03HX012 (ip), vehicle: saline): 88 % of control
- T/C (dose: 10.0 mg/kg/injection, schedule: Q03HX012 (ip), vehicle: saline): 100 % of control

SMILES: NC(=O)c1ncn(C2CC3[O][Sn]([c]4ccccc4)([c]4ccccc4)[O]CC3O2)n1 (centres undefined)
- T/C (dose: 31.13 mg/kg/injection, schedule: Q04DX004 (ip), vehicle: distilled water + Tween-80): 95 % of control
- T/C (dose: 62.5 mg/kg/injection, schedule: Q04DX004 (ip), vehicle: distilled water + Tween-80): 104 % of control
- T/C (dose: 125.0 mg/kg/injection, schedule: Q04DX004 (ip), vehicle: distilled water + Tween-80): 114 % of control
- T/C (dose: 250.0 mg/kg/injection, schedule: Q04DX004 (ip), vehicle: distilled water + Tween-80): 114 % of control
- T/C (dose: 500.0 mg/kg/injection, schedule: Q04DX004 (ip), vehicle: distilled water + Tween-80): 122 % of control

SMILES: CN1CCN(c2c(C(=O)Nc3ccc([N+](=O)[O-])cc3)cc([N+](=O)[O-])cc2[N+](=O)[O-])CC1
- T/C [6]: 96 % of control
- T/C [7]: 91 % of control

SMILES: NC(=O)C1=CC2C3C=CC2(O)C(=O)OC3O1 (centres undefined)
- T/C (dose: 7.5 mg/kg/injection, schedule: Q04DX004 (ip), vehicle: Klucel (hydroxypropylcellulose) (HPC)): 98 % of control
- T/C (dose: 15.0 mg/kg/injection, schedule: Q04DX004 (ip), vehicle: Klucel (hydroxypropylcellulose) (HPC)): 95 % of control
- T/C (dose: 30.0 mg/kg/injection, schedule: Q04DX004 (ip), vehicle: Klucel (hydroxypropylcellulose) (HPC)): 101 % of control
- T/C (dose: 60.0 mg/kg/injection, schedule: Q04DX004 (ip), vehicle: Klucel (hydroxypropylcellulose) (HPC)): 106 % of control

SMILES: O=C1c2ccccc2C(=O)c2c1cn1c2Cc2ccccc2C1
- T/C [14]: 90 % of control
- T/C (dose: 25.0 mg/kg/injection, schedule: Q04DX004 (ip), vehicle: other): 96 % of control and 102 % of control
- T/C [1]: 91 % of control and 93 % of control
- T/C (dose: 50.0 mg/kg/injection, schedule: Q04DX004 (ip), vehicle: other): 96 % of control and 103 % of control
- T/C [2]: 90 % of control
- T/C (dose: 100.0 mg/kg/injection, schedule: Q04DX004 (ip), vehicle: other): 106 % of control
- T/C (dose: 150.0 mg/kg/injection, schedule: Q04DX004 (ip), vehicle: other): 93 % of control
- T/C [3]: 88 % of control
- T/C (dose: 200.0 mg/kg/injection, schedule: Q04DX004 (ip), vehicle: other): 97 % of control
- T/C [4]: 89 % of control and 95 % of control

SMILES: CN(C)C(=O)SC1=C(c2c(Cl)cccc2Cl)C(=O)c2ccccc21
- T/C (dose: 37.5 mg/kg/injection, schedule: Q04DX004 (ip), vehicle: Klucel (hydroxypropylcellulose) (HPC)): 97 % of control
- T/C (dose: 75.0 mg/kg/injection, schedule: Q04DX004 (ip), vehicle: Klucel (hydroxypropylcellulose) (HPC)): 113 % of control
- T/C (dose: 150.0 mg/kg/injection, schedule: Q04DX004 (ip), vehicle: Klucel (hydroxypropylcellulose) (HPC)): 104 % of control
- T/C (dose: 300.0 mg/kg/injection, schedule: Q04DX004 (ip), vehicle: Klucel (hydroxypropylcellulose) (HPC)): 95 % of control
- T/C (dose: 1200.0 mg/kg/injection, schedule: Q04DX004 (ip), vehicle: Klucel (hydroxypropylcellulose) (HPC)): 95 % of control

SMILES: COc1cccc2sc(-n3c(C)nc4ccccc4c3=O)nc12
- T/C (dose: 31.25 mg/kg/injection, schedule: Q04DX004 (ip), vehicle: Klucel (hydroxypropylcellulose) (HPC)): 109 % of control
- T/C (dose: 62.5 mg/kg/injection, schedule: Q04DX004 (ip), vehicle: Klucel (hydroxypropylcellulose) (HPC)): 94 % of control
- T/C (dose: 125.0 mg/kg/injection, schedule: Q04DX004 (ip), vehicle: Klucel (hydroxypropylcellulose) (HPC)): 93 % of control
- T/C (dose: 250.0 mg/kg/injection, schedule: Q04DX004 (ip), vehicle: Klucel (hydroxypropylcellulose) (HPC)): 94 % of control
- T/C (dose: 500.0 mg/kg/injection, schedule: Q04DX004 (ip), vehicle: Klucel (hydroxypropylcellulose) (HPC)): 95 % of control

SMILES: CCn1c2ccccc2c2cc(N)c(N=Nc3ccc(N(C)C)cc3)cc21
- T/C (dose: 32.82 mg/kg/injection, schedule: Q04DX004 (ip), vehicle: Klucel (hydroxypropylcellulose) (HPC)): 111 % of control
- T/C (dose: 65.63 mg/kg/injection, schedule: Q04DX004 (ip), vehicle: Klucel (hydroxypropylcellulose) (HPC)): 93 % of control
- T/C (dose: 131.25 mg/kg/injection, schedule: Q04DX004 (ip), vehicle: Klucel (hydroxypropylcellulose) (HPC)): 97 % of control
- T/C (dose: 262.5 mg/kg/injection, schedule: Q04DX004 (ip), vehicle: Klucel (hydroxypropylcellulose) (HPC)): 93 % of control
- T/C (dose: 525.0 mg/kg/injection, schedule: Q04DX004 (ip), vehicle: Klucel (hydroxypropylcellulose) (HPC)): 90 % of control

SMILES: O=C(Nc1cccc(O)c1)C(Cl)=C(Cl)Cl
- T/C (dose: 6.25 mg/kg/injection, schedule: Q04DX004 (ip), vehicle: other): 96 % of control
- T/C [5]: 95 % of control

SMILES: Cn1c([N+](=O)[O-])cnc1CSc1ccc(C#N)cc1
- T/C [1]: 96 % of control
- T/C [2]: 93 % of control
- T/C [3]: 102 % of control
- T/C [4]: 94 % of control
- T/C [13]: 91 % of control

SMILES: CCNC(=O)[B-][N+](C)(C)C
- T/C [9]: 96 % of control
- T/C [10]: 104 % of control
- T/C [11]: 102 % of control
- T/C [12]: 92 % of control

SMILES: O=S(Cl)C(Cl)=C(Cl)Cl (centres undefined)
- T/C [14]: 86 % of control
